Results from patent publication US6376497B1, “Antifungal azole derivatives having a fluorinated vinyl group and process for preparing same” (Korea Research Institute of Chemical Technology, priority 1999, dated 2002).

Key:
Test in all cases: In vitro antifungal activity, microbroth dilution MIC
Assay type in all cases: cell-based
[1] = tested on: Candida tropicalis A. 13803; conditions: 4 to 48 hours; for Minimal inhibitory concentration (MIC): C. tropicalis A. 13803, RPMI-1640, 35° C.; for Minimal inhibitory concentration(MIC), C. tropicalis A. 13803: RPMI-1640, 35° C., no growth observed
Outline: (§1)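 Broth microdilution adapted from NCCLS M27, in RPMI-1640 with 0.165 M MOPS, pH 7.0. Yeast or mould inoculum at 2×10^3 CFU/ml was mixed 1:1 with DMSO-derived compound solutions (200 to 0.10 μg/ml before mixing) and incubated at 35 °C for 4 to 48 h. MIC was the concentration showing no growth.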

[2] = tested on: Cryptococcus neoformans IFM. 40092; conditions: 4 to 48 hours; for Minimal inhibitory concentration (MIC): Cry. neoformans IFM. 40092, RPMI-1640, 35° C.; for Minimal inhibitory concentration(MIC), Cry. neoformans IFM. 40092: RPMI-1640, 35° C., no growth observed
Outline: as §1

[3] = tested on: Candida parapsitosis A. 7330; conditions: 4 to 48 hours; for Minimal inhibitory concentration (MIC): C. parapsitosis A. 7330, RPMI-1640, 35° C.; for Minimal inhibitory concentration(MIC), C. parapsitosis A. 7330: RPMI-1640, 35° C., no growth observed
Outline: as §1

Candida albicans C1-2 = conditions: 4 to 48 hours; for Minimal inhibitory concentration (MIC): C. albicans C1-2, RPMI-1640, 35° C.; for Minimal inhibitory concentration(MIC), C. albicans C1-2: RPMI-1640, 35° C., no growth observed
Outline: as §1

[4] = tested on: Trichophyton mentagrophytes B. 32663; conditions: 4 to 48 hours; for Minimal inhibitory concentration (MIC): T. mentagrophytes B. 32663, RPMI-1640, 35° C.; for Minimal inhibitory concentration(MIC), T. mentagrophytes B. 32663: RPMI-1640, 35° C., no growth observed
Outline: as §1

[5] = tested on: Aspergillus furnigatus B. 19119; conditions: 4 to 48 hours; for Minimal inhibitory concentration (MIC): A furnigatus B. 19119, RPMI-1640, 35° C.; for Minimal inhibitory concentration(MIC), A furnigatus B. 19119: RPMI-1640, 35° C., no growth observed
Outline: as §1

[6] = tested on: Trichophyton mentagrophytes A. 9129; conditions: 4 to 48 hours; for Minimal inhibitory concentration (MIC): T. mentagrophytes A. 9129, RPMI-1640, 35° C.; for Minimal inhibitory concentration(MIC), T. mentagrophytes A. 9129: RPMI-1640, 35° C., no growth observed
Outline: as §1

[7] = tested on: Torulopsis glabrata B. 16205; conditions: 4 to 48 hours; for Minimal inhibitory concentration (MIC): T. glabrata B. 16205, RPMI-1640, 35° C.; for Minimal inhibitory concentration(MIC), T. glabrata B. 16205: RPMI-1640, 35° C., no growth observed
Outline: as §1

[8] = tested on: Candida albicans A. 10231; conditions: 4 to 48 hours; for Minimal inhibitory concentration (MIC): C. albicans A. 10231, RPMI-1640, 35° C.; for Minimal inhibitory concentration(MIC), C. albicans A. 10231: RPMI-1640, 35° C., no growth observed
Outline: as §1

[9] = tested on: Aspergillus niger A. 16404; conditions: 4 to 48 hours; for Minimal inhibitory concentration (MIC): A. niger A. 16404, RPMI-1640, 35° C.; for Minimal inhibitory concentration(MIC), A. niger A. 16404: RPMI-1640, 35° C., no growth observed
Outline: as §1

[10] = tested on: Candida albicans IFO. 1385; conditions: 4 to 48 hours; for Minimal inhibitory concentration (MIC): C. albicans IFO. 1385, RPMI-1640, 35° C.; for Minimal inhibitory concentration(MIC), C. albicans IFO. 1385: RPMI-1640, 35° C., no growth observed
Outline: as §1

[11] = tested on: Cryptococcus neoformans B. 42419; conditions: 4 to 48 hours; for Minimal inhibitory concentration (MIC): Cry. neoformans B. 42419, RPMI-1640, 35° C.; for Minimal inhibitory concentration(MIC), Cry. neoformans B. 42419: RPMI-1640, 35° C., no growth observed
Outline: as §1

Candida krusei K. 11655 = conditions: 4 to 48 hours; for Minimal inhibitory concentration (MIC): C. krusei K. 11655, RPMI-1640, 35° C.; for Minimal inhibitory concentration(MIC), C. krusei K. 11655: RPMI-1640, 35° C., no growth observed
Outline: as §1

[12] = tested on: Candida pseudotropicalis K. 11658; conditions: 4 to 48 hours; for Minimal inhibitory concentration (MIC): C. pseudotropicalis K. 11658, RPMI-1640, 35° C.; for Minimal inhibitory concentration(MIC), C. pseudotropicalis K. 11658: RPMI-1640, 35° C., no growth observed
Outline: as §1

[13] = tested on: Cryptococcus neoformans A. 34144; conditions: 4 to 48 hours; for Minimal inhibitory concentration (MIC): Cry. neoformans A. 34144, RPMI-1640, 35° C.; for Minimal inhibitory concentration(MIC), Cry. neoformans A. 34144: RPMI-1640, 35° C., no growth observed
Outline: as §1

| SMILES | Minimal inhibitory concentration (MIC) [1] [µg/mL] | Minimal inhibitory concentration (MIC) [2] | Minimal inhibitory concentration (MIC) [3] [µg/mL] | Minimal inhibitory concentration (MIC) (Candida albicans C1-2) [µg/mL] | Minimal inhibitory concentration (MIC) [4] [µg/mL] | Minimal inhibitory concentration(MIC), C. tropicalis A. 13803 [1] [µg/mL] | Minimal inhibitory concentration(MIC), Cry. neoformans IFM. 40092 [2] [µg/mL] | Minimal inhibitory concentration(MIC), C. parapsitosis A. 7330 [3] [µg/mL] | Minimal inhibitory concentration(MIC), C. albicans C1-2 (Candida albicans C1-2) [µg/mL] | Minimal inhibitory concentration(MIC), T. mentagrophytes B. 32663 [4] [µg/mL] | Minimal inhibitory concentration(MIC), A furnigatus B. 19119 [5] [µg/mL] | Minimal inhibitory concentration(MIC), T. mentagrophytes A. 9129 [6] [µg/mL] | Minimal inhibitory concentration(MIC), T. glabrata B. 16205 [7] [µg/mL] | Minimal inhibitory concentration(MIC), C. albicans A. 10231 [8] [µg/mL] | Minimal inhibitory concentration(MIC), A. niger A. 16404 [9] [µg/mL] | Minimal inhibitory concentration(MIC), C. albicans IFO. 1385 [10] [µg/mL] | Minimal inhibitory concentration(MIC), Cry. neoformans B. 42419 [11] [µg/mL] | Minimal inhibitory concentration(MIC), C. krusei K. 11655 (Candida krusei K. 11655) [µg/mL] | Minimal inhibitory concentration(MIC), C. pseudotropicalis K. 11658 [12] [µg/mL] | Minimal inhibitory concentration(MIC), Cry. neoformans A. 34144 [13] [µg/mL] | other results |
| --- | --- | --- | --- | --- | --- | --- | --- | --- | --- | --- | --- | --- | --- | --- | --- | --- | --- | --- | --- | --- | --- |
| FC(Oc1ccc(OCC2COC(Cn3ccnc3)(c3ccc(Cl)cc3Cl)O2)cc1)=C(c1ccc(Cl)cc1)C(F)(F)F (mixture of isomers) [Ex. 102] | – | – | – | – | – | >100 | 3.13 | >100 | 100 | 12.5 | 100 | 25.0 | 100 | 100 | >100 | 6.25 | >100 | >100 | >100 | 12.5 | – |
| FC(Oc1ccc(OCC2COC(Cn3cncn3)(c3ccc(Cl)cc3Cl)O2)cc1)=C(c1ccc(Cl)cc1)C(F)(F)F (mixture of isomers) [Ex. 122] | – | – | – | – | – | 25.0 | 0.20 | 6.25 | 6.25 | 3.13 | 12.5 | 6.25 | 12.5 | 12.5 | 100 | 0.78 | 1.56 | 12.5 | 6.25 | 0.78 | – |
| CCc1ccc(C(=C(F)Oc2ccc(OCC3COC(Cn4ccnc4)(c4ccc(F)cc4F)O3)cc2)C(F)(F)F)cc1 (mixture of isomers) [Ex. 108] | – | – | – | – | – | >100 | 0.78 | >100 | 100 | 12.5 | >100 | 50.0 | >100 | >100 | >100 | 6.25 | 3.13 | >100 | >100 | 3.13 | – |
| Cc1cccc(C(=C(F)OCC2COC(Cn3ccnc3)(c3ccc(F)cc3F)O2)C(F)(F)F)c1 (mixture of isomers) [Ex. 53] | 100 | ≦10.10 μg/ml | >100 | 25.0 | 1.56 | – | – | – | – | – | – | – | – | – | – | – | – | – | – | – | Minimal inhibitory concentration (MIC) [5]: 3.13 µg/mL; Minimal inhibitory concentration (MIC) [6]: 3.13 µg/mL; Minimal inhibitory concentration (MIC) [7]: 6.25 µg/mL; Minimal inhibitory concentration (MIC) [8]: 12.5 µg/mL; Minimal inhibitory concentration (MIC) [9]: 25.0 µg/mL; Minimal inhibitory concentration (MIC) [10]: 0.78 µg/mL; Minimal inhibitory concentration (MIC) [11]: 0.78 µg/mL; Minimal inhibitory concentration (MIC) (Candida krusei K. 11655): >100 µg/mL; Minimal inhibitory concentration (MIC) [12]: >100 µg/mL; Minimal inhibitory concentration (MIC) [13]: 1.56 µg/mL |

More lines, main results first:

| Minimal inhibitory concentration (MIC) [1] [µg/mL] | Minimal inhibitory concentration (MIC) [2] | Minimal inhibitory concentration (MIC) [3] [µg/mL] | Minimal inhibitory concentration (MIC) (Candida albicans C1-2) [µg/mL] | Minimal inhibitory concentration (MIC) [4] [µg/mL] | Minimal inhibitory concentration(MIC), C. tropicalis A. 13803 [1] [µg/mL] | Minimal inhibitory concentration(MIC), Cry. neoformans IFM. 40092 [2] [µg/mL] | Minimal inhibitory concentration(MIC), C. parapsitosis A. 7330 [3] [µg/mL] | Minimal inhibitory concentration(MIC), C. albicans C1-2 (Candida albicans C1-2) [µg/mL] | Minimal inhibitory concentration(MIC), T. mentagrophytes B. 32663 [4] [µg/mL] | Minimal inhibitory concentration(MIC), A furnigatus B. 19119 [5] [µg/mL] | Minimal inhibitory concentration(MIC), T. mentagrophytes A. 9129 [6] [µg/mL] | Minimal inhibitory concentration(MIC), T. glabrata B. 16205 [7] [µg/mL] | Minimal inhibitory concentration(MIC), C. albicans A. 10231 [8] [µg/mL] | Minimal inhibitory concentration(MIC), A. niger A. 16404 [9] [µg/mL] | Minimal inhibitory concentration(MIC), C. albicans IFO. 1385 [10] [µg/mL] | Minimal inhibitory concentration(MIC), Cry. neoformans B. 42419 [11] [µg/mL] | Minimal inhibitory concentration(MIC), C. krusei K. 11655 (Candida krusei K. 11655) [µg/mL] | Minimal inhibitory concentration(MIC), C. pseudotropicalis K. 11658 [12] [µg/mL] | Minimal inhibitory concentration(MIC), Cry. neoformans A. 34144 [13] [µg/mL] | SMILES | other results |
| --- | --- | --- | --- | --- | --- | --- | --- | --- | --- | --- | --- | --- | --- | --- | --- | --- | --- | --- | --- | --- | --- |
| >100 | 0.39 µg/mL | >100 | 25.0 | 6.25 | – | – | – | – | – | – | – | – | – | – | – | – | – | – | – | FC(OCC1COC(Cn2ccnc2)(c2ccc(F)cc2F)O1)=C(c1cccc(C(F)(F)F)c1)C(F)(F)F (mixture of isomers) [Ex. 58] | Minimal inhibitory concentration (MIC) [5]: 25.0 µg/mL; Minimal inhibitory concentration (MIC) [6]: 12.5 µg/mL; Minimal inhibitory concentration (MIC) [7]: 6.25 µg/mL; Minimal inhibitory concentration (MIC) [8]: 25.0 µg/mL; Minimal inhibitory concentration (MIC) [9]: >100 µg/mL; Minimal inhibitory concentration (MIC) [10]: 0.78 µg/mL; Minimal inhibitory concentration (MIC) [11]: 1.56 µg/mL; Minimal inhibitory concentration (MIC) (Candida krusei K. 11655): 100 µg/mL; Minimal inhibitory concentration (MIC) [12]: 50.0 µg/mL; Minimal inhibitory concentration (MIC) [13]: 1.56 µg/mL |
| – | – | – | – | – | >100 | 0.39 | 3.13 | >100 | 3.13 | >100 | 12.5 | >100 | >100 | >100 | 3.13 | 0.78 | 3.13 | 1.56 | 0.78 | CCc1ccc(C(=C(F)N2CCN(c3ccc(OCC4COC(Cn5ccnc5)(c5ccc(Cl)cc5Cl)O4)cc3)CC2)C(F)(F)F)cc1 (mixture of isomers) [Ex. 127] | – |
| – | – | – | – | – | >100 | 1.56 | >100 | >100 | >100 | >100 | >100 | >100 | >100 | >100 | >100 | >100 | >100 | >100 | >100 | Cc1cc(C)cc(C(=C(F)OCC2COC(Cn3cncn3)(c3ccc(Cl)cc3Cl)O2)C(F)(F)F)c1 (mixture of isomers) [Ex. 83] | – |
| 50.0 | ≦0.10 μg/ml | >100 | 12.5 | 1.53 | – | – | – | – | – | – | – | – | – | – | – | – | – | – | – | FC(OCC1COC(Cn2ccnc2)(c2ccc(F)cc2F)O1)=C(c1cccc(F)c1)C(F)(F)F (mixture of isomers) [Ex. 65] | Minimal inhibitory concentration (MIC) [5]: 3.13 µg/mL; Minimal inhibitory concentration (MIC) [6]: 3.13 µg/mL; Minimal inhibitory concentration (MIC) [7]: 6.25 µg/mL; Minimal inhibitory concentration (MIC) [8]: 12.5 µg/mL; Minimal inhibitory concentration (MIC) [9]: 12.5 µg/mL; Minimal inhibitory concentration (MIC) [10]: 0.78 µg/mL; Minimal inhibitory concentration (MIC) [11]: 1.56 µg/mL; Minimal inhibitory concentration (MIC) (Candida krusei K. 11655): 100 µg/mL; Minimal inhibitory concentration (MIC) [12]: 25.0 µg/mL; Minimal inhibitory concentration (MIC) [13]: 1.56 µg/mL |
